Results from the Kinase Knowledgebase extract (Sharma et al. 2016).

Key:
MAPK14 (human) [1] = target: MAPK14 (human) (UniProt Q16539); test: Inhibition of TNF Release from Human Peripheral Blood Mononuclear Cells; details: pbmc
MAPK14 (C3H mice) = test: Inhibition of LPS Stimulated TNF Production in C3H Mice; details: dose or concentration not given here
MAPK14 = MAPK14 (UniProt Q16539); test: Inhibition of p38 Kinase Activity
MAPK14 (human) [2] = target: MAPK14 (human) (UniProt Q16539); test: Inhibition of HFF Cell Proliferation

Sequence of MAPK14 (human) (Q16539 whole entry, looked up): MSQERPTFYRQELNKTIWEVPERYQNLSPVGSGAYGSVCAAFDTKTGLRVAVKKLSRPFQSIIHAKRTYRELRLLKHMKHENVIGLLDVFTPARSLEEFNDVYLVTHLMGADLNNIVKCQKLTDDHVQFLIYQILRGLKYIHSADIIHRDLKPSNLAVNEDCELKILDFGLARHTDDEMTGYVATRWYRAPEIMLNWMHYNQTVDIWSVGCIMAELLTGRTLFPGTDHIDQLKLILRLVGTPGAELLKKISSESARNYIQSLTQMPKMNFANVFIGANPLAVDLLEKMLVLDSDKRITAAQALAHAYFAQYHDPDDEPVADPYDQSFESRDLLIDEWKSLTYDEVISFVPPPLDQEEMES
Sequence of MAPK14 (Q16539 whole entry, looked up): as above

IC50 (MAPK14)	SMILES	further results
< 500 nM	NC(=O)c1ccc2c(-c3ccnc(NC4CC4)n3)c(-c3ccc(F)cc3)nn2c1	IC50 (MAPK14 (human) [1]): < 500 nM; inhibition (MAPK14 (C3H mice)): 90%
1000 to 10000 nM	CCCN(CCC)CCNc1nccc(-c2c(-c3ccc(C(F)(F)F)cc3)nn3cc(C(F)(F)F)ccc23)n1	
100 to 1000 nM	Fc1ccc(-c2nn3cc(C(F)(F)F)ccc3c2-c2ccnc(NCCN3CCCC3)n2)cc1Cl	
< 500 nM	N#Cc1ccc2c(-c3ccnc(NC4CC4)n3)c(-c3ccc(F)cc3)nn2c1	inhibition (MAPK14 (C3H mice)): 52%
< 500 nM	CC(C)Nc1nccc(-c2c(-c3ccc(F)cc3)nn3cc(C(F)(F)F)ccc23)n1	inhibition (MAPK14 (C3H mice)): 45%
100 to 1000 nM	Fc1ccc(-c2nn3cc(C(F)(F)F)ccc3c2-c2ccnc(NCCN3CCCCC3)n2)cc1Cl	
100 to 1000 nM	CCCN(CCC)CCNc1nccc(-c2c(-c3cccc(Cl)c3)nn3cc(C(F)(F)F)ccc23)n1	
< 500 nM	OCCCNc1cc(-c2c(-c3ccc(F)cc3)nn3ccccc23)ccn1	inhibition (MAPK14 (C3H mice)): 45%; IC50 (MAPK14 (human) [2]): > 50000 nM
100 to 1000 nM	FC(F)(F)c1ccc2c(-c3ccnc(NCCN4CCCCCC4)n3)c(-c3cccc(Cl)c3)nn2c1	
1000 to 10000 nM	FC(F)(F)c1ccc(-c2nn3cc(C(F)(F)F)ccc3c2-c2ccnc(NCCN3CCCC3)n2)cc1	
< 500 nM	NC(=O)c1ccc2c(-c3ccnc(NCCCO)n3)c(-c3ccc(F)cc3)nn2c1	
10 to 100 nM	CCCN1CCN(CCNc2nccc(-c3c(-c4ccc(F)c(Cl)c4)nn4cc(C(F)(F)F)ccc34)n2)CC1	
10 to 100 nM	Fc1ccc(-c2nn3cc(C(F)(F)F)ccc3c2-c2ccnc(NCCN3CCOCC3)n2)cc1Cl	
500 to 5000 nM	COc1ccn2nc(-c3ccc(F)cc3)c(-c3ccncc3)c2c1	inhibition (MAPK14 (C3H mice)): 11%
100 to 1000 nM	CCCN(CCC)CCNc1nccc(-c2c(-c3ccc(F)c(Cl)c3)nn3cc(C(F)(F)F)ccc23)n1	
< 500 nM	CCCCNc1nccc(-c2c(-c3ccc(F)cc3)nn3ccccc23)n1	inhibition (MAPK14 (C3H mice)): 88%
100 to 1000 nM	Fc1ccc(-c2nn3cc(C(F)(F)F)ccc3c2-c2ccnc(NCCN3CCCCCC3)n2)cc1Cl	
< 500 nM	Fc1ccc(-c2nn3ccccc3c2-c2ccnc(NC3CC3)n2)cc1	
< 500 nM	OCCCNc1nccc(-c2c(-c3ccc(F)cc3)nn3cc(C(F)(F)F)ccc23)n1	
10 to 100 nM	CN(C)CCCNc1nccc(-c2c(-c3ccc(F)c(Cl)c3)nn3cc(C(F)(F)F)ccc23)n1	

IC50 (MAPK14)	SMILES	further results
1000 to 10000 nM	FC(F)(F)c1ccc(-c2nn3cc(C(F)(F)F)ccc3c2-c2ccnc(NCCN3CCCCC3)n2)cc1	
10 to 100 nM	CN1CCN(CCCNc2nccc(-c3c(-c4ccc(F)cc4)nn4cc(C(F)(F)F)ccc34)n2)CC1	
1000 to 10000 nM	FC(F)(F)c1ccc(-c2nn3cc(C(F)(F)F)ccc3c2-c2ccnc(NCCCN3CCCCC3)n2)cc1	
100 to 1000 nM	CN(C)CCCNc1nccc(-c2c(-c3ccc(F)cc3)nn3cc(C(F)(F)F)ccc23)n1	
< 500 nM	Fc1ccc(-c2nn3ccccc3c2-c2ccncc2)cc1	inhibition (MAPK14 (C3H mice)): 65%; IC50 (MAPK14 (human) [2]): > 50000 nM
500 to 5000 nM	Fc1ccc(-c2nn3ccccc3c2-c2ccncn2)cc1	inhibition (MAPK14 (C3H mice)): 67%; IC50 (MAPK14 (human) [2]): > 50000 nM
< 500 nM	Nc1nccc(-c2c(-c3ccc(F)cc3)nn3cc(C(F)(F)F)ccc23)n1	
100 to 1000 nM	CC(C)N(CCNc1nccc(-c2c(-c3ccc(F)c(Cl)c3)nn3cc(C(F)(F)F)ccc23)n1)C(C)C	
< 500 nM	Fc1ccc(-c2nn3ccccc3c2-c2ccnc(NCc3cccnc3)c2)cc1	IC50 (MAPK14 (human) [2]): 5000 to 50000 nM
< 500 nM	Cc1ccc(C)c(Oc2nccc(-c3c(-c4ccc(F)cc4)nn4cc(C(F)(F)F)ccc34)n2)c1	
< 500 nM	NC(=O)c1ccc2c(-c3ccnc(NCCCN4CCCCC4)n3)c(-c3ccc(F)cc3)nn2c1	
< 500 nM	Fc1ccc(-c2nn3cc(C(F)(F)F)ccc3c2-c2ccnc(Oc3ccccc3)n2)cc1	
< 500 nM	Fc1ccc(-c2nn3cc(C(F)(F)F)ccc3c2-c2ccncc2)cc1	
< 500 nM	CSc1nccc(-c2c(-c3ccc(F)cc3)nn3ccccc23)n1	inhibition (MAPK14 (C3H mice)): 56%
10 to 100 nM	CN(C)CCCNc1nccc(-c2c(-c3cccc(Cl)c3)nn3cc(C(F)(F)F)ccc23)n1	
< 500 nM	Fc1ccc(-c2nn3ccccc3c2-c2ccnc(NCc3ccc(Cl)cc3)c2)cc1	IC50 (MAPK14 (human) [1]): < 500 nM; inhibition (MAPK14 (C3H mice)): 42%
1000 to 10000 nM	CN(C)CCCNc1nccc(-c2c(-c3ccc(C(F)(F)F)cc3)nn3cc(C(F)(F)F)ccc23)n1	
10 to 100 nM	CCN(CC)CCCCNc1nccc(-c2c(-c3cccc(Cl)c3)nn3cc(C(F)(F)F)ccc23)n1	
100 to 1000 nM	CCN(CC)CCNc1nccc(-c2c(-c3cccc(Cl)c3)nn3cc(C(F)(F)F)ccc23)n1	
100 to 1000 nM	FC(F)(F)c1ccc2c(-c3ccnc(NCCN4CCCCC4)n3)c(-c3cccc(Cl)c3)nn2c1	

IC50 (MAPK14)	SMILES	further results
100 to 1000 nM	Fc1ccc(-c2nn3cc(C(F)(F)F)ccc3c2-c2ccnc(NCCCN3CCCCC3)n2)cc1Cl	
10 to 100 nM	CN1CCN(CCCNc2nccc(-c3c(-c4ccc(F)c(Cl)c4)nn4cc(C(F)(F)F)ccc34)n2)CC1	
10 to 100 nM	FC(F)(F)c1ccc2c(-c3ccnc(NCCCCN4CCCC4)n3)c(-c3cccc(Cl)c3)nn2c1	
< 500 nM	Fc1ccc(-c2nn3cc(C(F)(F)F)ccc3c2-c2ccnc(NC3CC3)n2)cc1	inhibition (MAPK14 (C3H mice)): 24%
< 500 nM	Fc1ccc(-c2nn3ccccc3c2-c2ccnc(NCCc3cnc[nH]3)n2)cc1	
10 to 100 nM	CCCN1CCN(CCNc2nccc(-c3c(-c4cccc(Cl)c4)nn4cc(C(F)(F)F)ccc34)n2)CC1	
1000 to 10000 nM	FC(F)(F)c1ccc(-c2nn3cc(C(F)(F)F)ccc3c2-c2ccnc(NCCN3CCOCC3)n2)cc1	
1000 to 10000 nM	CCN(CC)CCNc1nccc(-c2c(-c3ccc(C(F)(F)F)cc3)nn3cc(C(F)(F)F)ccc23)n1	
100 to 1000 nM	Fc1ccc(-c2nn3cc(C(F)(F)F)ccc3c2-c2ccnc(NCCCN3CCOCC3)n2)cc1Cl	
1000 to 10000 nM	FC(F)(F)c1ccc(-c2nn3cc(C(F)(F)F)ccc3c2-c2ccnc(NCCCN3CCOCC3)n2)cc1	
< 500 nM	OCc1ccn2nc(-c3ccc(F)cc3)c(-c3ccncc3)c2c1	
100 to 1000 nM	FC(F)(F)c1ccc2c(-c3ccnc(NCCN4CCCC4)n3)c(-c3cccc(Cl)c3)nn2c1	
1000 to 10000 nM	CCCN1CCN(CCNc2nccc(-c3c(-c4ccc(C(F)(F)F)cc4)nn4cc(C(F)(F)F)ccc34)n2)CC1	
10 to 100 nM	FC(F)(F)c1ccc2c(-c3ccnc(NCCCN4CCOCC4)n3)c(-c3cccc(Cl)c3)nn2c1	
< 500 nM	Nc1ncccc1C(=O)OCc1ccn2nc(-c3ccc(F)cc3)c(-c3ccncc3)c2c1	IC50 (MAPK14 (human) [2]): > 50000 nM
< 500 nM	Fc1ccc(-c2nn3ccccc3c2-c2ccnc(NCc3ccccn3)n2)cc1	inhibition (MAPK14 (C3H mice)): 87%
10 to 100 nM	CCN(CC)CCCCNc1nccc(-c2c(-c3ccc(F)c(Cl)c3)nn3cc(C(F)(F)F)ccc23)n1	
< 500 nM	Nc1nccc(-c2c(-c3ccc(F)cc3)nn3ccccc23)n1	inhibition (MAPK14 (C3H mice)): 62%
